Patent publication US5635193A, “Stability of azadirachtin-containing solid” (Thermo Trilogy Corporation, priority 1995, dated 1997)

Assays:
[1] = Storage stability at 55° C. of dried lot 14 solid with added water or ethanol (Example 3, Table 3); assay type: physicochemical; conditions: 55° C. for a short period such as 24 hours
Excerpt: Three values are given in the tables for each azadirachtin level: The amount (in grams) of azadirachtin A is given before the slash. The amount of azadirachtin B (in grams) is given after the slash. The total azadirachtin amount is given in parentheses. Ka, Kb, and Kt refer to the first order decomposition rate constants (with units of 1/day) for azadirachtin A, azadirachtin B, and total azadirachtin, respectively.
Dry solid azadirachtin was obtained by drying a solid azadirachtin sample from Lot 14 (014) in an oven at 55° C. for 24 hours in an unsealed vessel until the volatile content of the solid was less than 0.5%. The dried sample was then split into 6 subsamples. One dry subsample (014D) was used without further treatment. A second subsample (014W1) received 1% by weight of H2 O. A third subsample (014W4) received 4% by weight H2 O. Subsamples 4, 5 and 6 received 1, 3, and 5% by weight of ethanol, respectively and were designated 014E1, 014E3, and 014E5. The subsamples were placed in multiple tightly sealed vials at 55° C. Individual vials were removed periodically to assay for azadirachtin.

[2] = test system: various insect, mite, nematode, etc. orders; conditions: cited from earlier work

## C/C=C(\C)C(=O)O[C@H]1C[C@@H](OC(C)=O)[C@@]2(C(=O)OC)CO[C@H]3[C@@H](O)[C@@](C)([C@]45O[C@@]4(C)[C@H]4C[C@@H]5O[C@@H]5OC=C[C@@]54O)[C@H]4[C@]1(CO[C@]4(O)C(=O)OC)[C@@H]32 [azadirachtin]
[1]
  effect of heating upon azadirachtin stability: little or no effect upon azadirachtin stability
[2]
  biological activity (in words): feeding inhibition and growth disruption
